Tests used:
Format in all cases: in vivo, BALB/c mice
[1] = system: light irradiation model (atrophic AMD model mouse); assay: Pharmacological test against AMD, light-induced AMD model mice, oral administration, ONL thickness
Method: A test was performed using a light irradiation model, which is widely employed as an atrophic AMD model mouse, as a test model. Male BALB/c mice (4 weeks old) were purchased from Japan SLC, Inc., and allowed to acclimate for a week before being used for experiments. Laboratory animal chow (CLEA Rodent Diet CE-2, CREA JAPAN, INC.) was used as food, and tap water was freely consumed as drinking water. The animals were raised under light and dark cycles of every 12 hours. Also all animal experiments were conducted under the approval of the Kyushu University Animal Experiment Committee. To BALB/c mice, 1 mL/kg of 50 μM compound dissolved in PBS containing 10% polyethylene glycol (PEG) 300 was orally administered. Thirty (30) minutes later, one drop of […] (5 mg/mL tropicamide, 5 mg/mL phenylephrine hydrochloride; Santen Pharmaceutical Co., Ltd.) was applied to each eye as a mydriatic drug. The mice were irradiated with 8000 lux white light for 10 hours, then returned to under normal light and dark cycles, and raised for 6 days. On day 7, the animal was euthanized by cervical dislocation, and the eyeballs were removed (FIG. 1A). Frozen sections of 8 μm thickness were prepared by using the above-mentioned removed eyeballs, and subjected to hematoxylin eosin (HE) staining, and the thickness of the outer nuclear layer (ONL) was measured over 27 points every 180 μm (observation magnification: 60 times) (FIG. 1B). The preparation was air-dried for 1 hour, fixed with acetone at room temperature for 15 minutes, then immersed in 99.5% EtOH, 80% EtOH, 70% EtOH, and purified water in this order for 3 minutes each, and stained with hematoxylin for 10 minutes. Then, it was washed with running water for 10 minutes, soaked in warm water for 1 minute, and stained with eosin for 1.5 minutes. After washing with purified water, it was immersed in 70% EtOH, 80% EtOH, and 99.5% EtOH in this order for 3 minutes each, then washed with xylene three times, dried, and then enclosed with VectaMountTM Mounting Medium. The resultant was subjected to observation and imaging with Keyence fluorescence microscope (BZ-9000). Results were expressed as mean+standard deviation. Dunnett's Test was used for multigroup comparison.

[2] = system: mRNA of Muller cell marker protein; assay: Activity evaluation test of Muller cell (real-time PCR of retina, AMD model mice); details: oral, 1 mL/kg of 50 μM, pathological group of mice
Excerpt: For age-related macular degeneration (AMD), the suppression activity of the test compounds against the expression amount of mRNA of a marker protein, which is used as an indicator of activity of Muller cell and is increased as a pathology is deteriorated, was examined. The present compound as test compound was methyldopa (Compound Y).
(§1) Male BALB/c mice (4 weeks old) were purchased from Japan SLC, Inc., and allowed to acclimate for a week before being used for experiments. Laboratory animal chow (CLEA Rodent Diet CE-2, CREA JAPAN, INC.) was used as food, and tap water was freely consumed as drinking water. The animals were raised under light and dark cycles of every 12 hours. Also all animal experiments were conducted under the approval of the Kyushu University Animal Experiment Committee.
A method for producing age-related macular degeneration (AMD) model mice (production schedule) was prepared according to the method described in Test Example 2 (FIG. 3). […]
For the removed retina, RNA was extracted by using ISOSPIN Cell & Tissue RNA (manufactured by Nippon Gene Co. Ltd), and cDNA was then synthesized by using ReverTra Ace™ qPCR RT master Mix (manufactured by Toyobo Co. Ltd). […] All of the test results were corrected by Gapdh mRNA amounts, and a relative quantification was carried.

[3] = system: mRNA of microglia marker protein; assay: Activity evaluation test of microglia (real-time PCR of retina, AMD model mice); details: oral, 1 mL/kg of 50 μM, pathological group of mice
mRNA of the complement = assay: Activity evaluation test of complement (real-time PCR of retina, AMD model mice); details: oral, 1 mL/kg of 50 μM, pathological group of mice
Method: Specifically, to 9 week olds of BALB/c mice, 1 mL/kg of 50 μM test compounds dissolved in PBS containing 10% polyethylene glycol (PEG) 300 was orally administered. A PBS solution containing 10% polyethylene glycol (PEG) 300 was used as a control. Thirty (30) minutes later, one drop of Midrin P (5 mg/mL tropicamide, 5 mg/mL phenylephrine hydrochloride; Santen Pharmaceutical Co., Ltd.) as a mydriatic drug was applied to both eyes by one drop per one eye. The mice were irradiated with 8000 lux white light for 10 hours, then returned to under normal light and dark cycles, and raised for the desirable observation periods. After the observation periods, the animal was euthanized by cervical dislocation, and the retina were removed.
For the removed retina, RNA was extracted by using ISOSPIN Cell & Tissue RNA (manufactured by Nippon Gene Co. Ltd), and cDNA was then synthesized by using ReverTra Ace™ qPCR RT master Mix (manufactured by Toyobo Co. Ltd). The obtained cDNA was diluted with sterile water to 0.5 ng/μL, and a real-time PCR was carried out with THUNDERBIRD™ SYBR™ qPCR Mix (manufactured by Toyobo Co. Ltd). All of the test results were corrected by Gapdh mRNA amounts, and a relative quantification was carried. […]

[4] = system: light irradiation model (atrophic AMD model mouse); assay: Pharmacological test against AMD, light-induced AMD model mice, administration by eye drop, ONL thickness; details: 50 μL per one eye
Method: A test was performed using a light irradiation model, which is widely employed as an atrophic AMD model mouse, as a test model.
as §1
To BALB/c mice, Midrin P (5 mg/mL tropicamide, 5 mg/mL phenylephrine hydrochloride; Santen Pharmaceutical Co., Ltd.) as a mydriatic drug was applied to both eyes by one drop per one eye, and after 10 minutes, 0.45%, 0.75% or 1% of methyldopa that was dissolved in PBS containing 10% polyethylene glycol (PEG) 300 was administered with eye drop in 50 μL of the compound per one eye. Thereafter, the mice were irradiated with 8000 lux white light for 10 hours, then returned to under normal light and dark cycles, and raised for 6 days. On day 7, the animal was euthanized by cervical dislocation, and the eyeballs were removed.
Frozen sections of 8 μm thickness were prepared by using the above-mentioned removed eyeballs, and subjected to hematoxylin eosin (HE) staining, and the thickness of the outer nuclear layer (ONL) was measured over 27 points every 180 μm (observation magnification: 40 times).
The preparation was air-dried for 1 hour, fixed with acetone at room temperature for 15 minutes, then immersed in 99.5% EtOH, 80% EtOH, 70% EtOH, and purified water in this order for 3 minutes each, and stained with hematoxylin for 10 minutes. Then, it was washed with running water for 10 minutes, soaked in warm water for 1 minute, and stained with eosin for 1.5 minutes. […] The resultant was subjected to observation and imaging with Keyence fluorescence microscope (BZ-9000).
Results were expressed as mean+standard deviation. […]

[5] = 50 μmol/kg, 8000 lux white light 10 hours, day 7

## CC1Cc2ccccc2N1NC(=O)c1ccc(Cl)c(S(N)(=O)=O)c1 (racemic) [indapamide, 4-Chloro-N-[(2RS)-2-methyl-2,3-dihydro-1H-indol-1-yl]-3-sulfamoyl Benzamide]
[1]; [5]
  ONL thickness compared to positive control: not different so much compared to that of the positive control

## CCOc1ccc2c(c1)C(C)=CC(C)(C)N2 [ethoxyquin, 6-Ethoxy-2,2,4-trimethyl-1,2-dihydroquinoline]
[1]; [5]
  ONL thickness compared to positive control: not different so much compared to that of the positive control

## C[C@](N)(Cc1ccc(O)c(O)c1)C(=O)O [methyldopa, Methyldopa Sesquihydrates]
[2]
  expression amounts of mRNA in Muller cell marker protein: suppress significantly
[3]
  expression amounts of mRNA in microglia marker protein: suppress significantly
[1]; 100 μmol/kg
  ONL thickness compared to positive control: didn't have significant difference compared to that of the positive control
[1]; 200 μmol/kg
  ONL thickness compared to positive control: didn't have significant difference compared to that of the positive control
mRNA of the complement
  expression amounts of mRNA in the complement: suppress significantly
[4]; eye drop 0.45%
  ONL thickness compared to light irradiation case: significant thickness compared to that of the light irradiation case
[4]; eye drop 0.75%
  ONL thickness compared to light irradiation case: significant thickness compared to that of the light irradiation case
[4]; eye drop 1%
  ONL thickness compared to light irradiation case: significant thickness compared to that of the light irradiation case
